ChEMBL document CHEMBL1201862, “PubChem BioAssay data set” (2004)
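Where inhibition never reached the appropriate level, the endpoint shown equals the highest concentration tested. Otherwise, values were interpolated linearly from a five-concentration, 48-hour dose response in 96-well plates. Abbreviation: GI50, concentration required for 50% inhibition of growth.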 Activity calls are given as the source filed them. Cut-off read from the data, not from the text of the source: active = GI50 up to about 1.1 µM and inactive = higher.

Key:
Assay in all cases: NCI tumour cell line growth inhibition, 48 h
HT-29 = test system: HT-29
MOLT-4 = test system: MOLT-4
HOP-92 = test system: HOP-92
MDA-N = test system: MDA-N
Malme-3M = test system: Malme-3M
MCF7 = test system: MCF7
K562 = test system: K562
NCI-H522 = test system: NCI-H522
EKVX = test system: EKVX
UACC-257 = test system: UACC-257
SK-OV-3 = test system: SK-OV-3
NCI-H23 = test system: NCI-H23
OVCAR-8 = test system: OVCAR-8
ACHN = test system: ACHN
MDA-MB-231 = test system: MDA-MB-231
SNB-19 = test system: SNB-19
RPMI-8226 = test system: RPMI-8226
HCT-116 = test system: HCT-116
MDA-MB-435 = test system: MDA-MB-435
IGROV-1 = test system: IGROV-1
OVCAR-3 = test system: OVCAR-3
HCT-15 = test system: HCT-15
786-0 = test system: 786-0
DU-145 = test system: DU-145
T47D = test system: T47D
BT-549 = test system: BT-549
OVCAR-5 = test system: OVCAR-5
U-251 = test system: U-251
SF-295 = test system: SF-295
COLO 205 = test system: COLO 205
M14 = test system: M14
HOP-62 = test system: HOP-62
PC-3 = test system: PC-3
HCC 2998 = test system: HCC 2998
NCI/ADR-RES = test system: NCI/ADR-RES
UO-31 = test system: UO-31
NCI-H226 = test system: NCI-H226
LOX IMVI = test system: LOX IMVI
A549 = test system: A549
OVCAR-4 = test system: OVCAR-4
SF-268 = test system: SF-268
SK-MEL-5 = test system: SK-MEL-5
CAKI-1 = test system: CAKI-1
KM12 = test system: KM12
TK-10 = test system: TK-10
SR = test system: SR
RXF 393 = test system: RXF 393
HL-60 = test system: HL-60
UACC-62 = test system: UACC-62
SK-MEL-28 = test system: SK-MEL-28
SK-MEL-2 = test system: SK-MEL-2
A498 = test system: A498
SW-620 = test system: SW-620
SN12C = test system: SN12C
SNB-75 = test system: SNB-75
SF-539 = test system: SF-539
NCI-H460 = test system: NCI-H460
CCRF-CEM = test system: CCRF-CEM
Hs-578T = test system: Hs-578T

Measured: GI50

Oc1ccc2c3c1OC1c4[nH]c5c(c4CC4(O)C(C2)N(CC2CC2)CC[C@]314)CC1(O)C2Cc3ccc(O)c4c3[C@@]1(CCN2CC1CC1)C5O4 (stereo partly drawn)
> 100 µM: HCT-15
inactive: HT-29 20 µM | MOLT-4 22.4 µM | HOP-92 23 µM | MDA-N 18.4 µM | Malme-3M 17 µM | MCF7 34.7 µM | K562 25.4 µM | NCI-H522 19.3 µM | EKVX 35.6 µM | UACC-257 20.3 µM | SK-OV-3 43 µM | NCI-H23 > 100 µM | OVCAR-8 51.9 µM | ACHN > 100 µM | MDA-MB-231 24.4 µM | SNB-19 24.3 µM | RPMI-8226 25.2 µM | HCT-116 17.5 µM | MDA-MB-435 19.9 µM | IGROV-1 > 100 µM | OVCAR-3 17.6 µM | 786-0 21.3 µM | DU-145 37.2 µM | T47D 18.6 µM | BT-549 > 100 µM | OVCAR-5 28 µM | U-251 19.9 µM | SF-295 19.6 µM | COLO 205 18.1 µM | M14 17.5 µM | HOP-62 77.3 µM | PC-3 43.5 µM | HCC 2998 18.7 µM | NCI/ADR-RES > 100 µM | UO-31 > 100 µM | NCI-H226 27.8 µM | LOX IMVI 27 µM | A549 18.6 µM | OVCAR-4 29.8 µM | SF-268 19.8 µM | SK-MEL-5 44 µM | CAKI-1 > 100 µM | KM12 17.5 µM | TK-10 21.2 µM | SR 27.4 µM | RXF 393 18.1 µM | HL-60 21.9 µM | UACC-62 20.4 µM | SK-MEL-28 20.1 µM | SK-MEL-2 24.2 µM | A498 17.5 µM | SW-620 21.9 µM | SN12C 35 µM

C[C@@H]1O[C@@H](O[C@H]2CC[C@]3(C=O)[C@H]4CC[C@]5(C)[C@@H](C6=CC(=O)OC6)CC[C@]5(O)[C@@H]4CC[C@]3(O)C2)[C@H](O)[C@H](O)[C@H]1O [CONVALLATOXIN]
active: HT-29 4.78e-05 µM | MOLT-4 6.01e-06 µM | HOP-92 4.83e-05 µM | MDA-N 4.3e-05 µM | Malme-3M 3.71e-05 µM | K562 4.92e-05 µM | NCI-H522 9.93e-06 µM | EKVX 9.51e-06 µM | UACC-257 6.67e-05 µM | SK-OV-3 4.37e-05 µM | NCI-H23 9.93e-06 µM | OVCAR-8 2.94e-05 µM | ACHN 9.73e-06 µM | MDA-MB-231 0.00013 µM | SNB-19 0.0178 µM | RPMI-8226 4.45e-05 µM | HCT-116 < 0.01 µM | MDA-MB-435 4.23e-05 µM | IGROV-1 < 0.01 µM | OVCAR-3 8.91e-06 µM | 786-0 8.79e-06 µM | DU-145 6.65e-06 µM | T47D 5.62e-05 µM | BT-549 1.32e-05 µM | OVCAR-5 4.24e-05 µM | U-251 5.58e-05 µM | SF-295 2.73e-05 µM | COLO 205 9.35e-05 µM | M14 0.0146 µM | HOP-62 1.05e-05 µM | PC-3 2.62e-05 µM | HCC 2998 < 0.01 µM | NCI/ADR-RES 1.26e-05 µM | UO-31 < 0.01 µM | NCI-H226 5.35e-05 µM | LOX IMVI 2.93e-05 µM | SNB-75 4.3e-05 µM | A549 < 0.01 µM | OVCAR-4 7.28e-06 µM | SF-268 1.21e-05 µM | SF-539 1.83e-05 µM | SK-MEL-5 2.05e-05 µM | CAKI-1 1.23e-05 µM | KM12 8.39e-05 µM | TK-10 2.88e-05 µM | NCI-H460 8.47e-06 µM | RXF 393 1.67e-05 µM | HL-60 3.42e-05 µM | UACC-62 5.85e-05 µM | SK-MEL-28 6.4e-05 µM | SK-MEL-2 7.1e-05 µM | A498 5.74e-05 µM | SW-620 3.93e-05 µM | CCRF-CEM < 0.01 µM | Hs-578T < 0.01 µM | SN12C 8.69e-06 µM
4.69e-05 µM: HCT-15

O=C(O)Cc1ccc(-n2nnc3c(=O)[nH][nH]c(=O)c32)cc1
inactive: HT-29 > 100 µM | MOLT-4 > 100 µM | HOP-92 > 100 µM | MDA-N > 100 µM | Malme-3M > 100 µM | MCF7 > 100 µM | K562 > 100 µM | EKVX > 100 µM | UACC-257 > 100 µM | NCI-H23 > 100 µM | OVCAR-8 > 100 µM | ACHN > 100 µM | MDA-MB-231 > 100 µM | SNB-19 > 100 µM | RPMI-8226 > 100 µM | HCT-116 > 100 µM | MDA-MB-435 > 100 µM | OVCAR-3 > 100 µM | 786-0 > 100 µM | DU-145 > 100 µM | BT-549 > 100 µM | OVCAR-5 > 100 µM | U-251 > 100 µM | SF-295 > 100 µM | COLO 205 > 100 µM | M14 > 100 µM | HOP-62 > 100 µM | PC-3 > 100 µM | HCC 2998 > 100 µM | NCI/ADR-RES > 100 µM | UO-31 > 100 µM | LOX IMVI > 100 µM | A549 > 100 µM | OVCAR-4 > 100 µM | SK-MEL-5 > 100 µM | CAKI-1 > 100 µM | KM12 > 100 µM | TK-10 > 100 µM | SR > 100 µM | NCI-H460 > 100 µM | HL-60 > 100 µM | SK-MEL-28 > 100 µM | SK-MEL-2 > 100 µM | CCRF-CEM > 100 µM | SN12C > 100 µM
> 100 µM: HCT-15

CCOP(=O)(OCC)/C(C#N)=C/c1ncc[nH]1
> 10 µM: HCT-15
inactive: HT-29 > 100 µM | MOLT-4 > 100 µM | HOP-92 > 100 µM | MDA-N > 100 µM | Malme-3M > 100 µM | MCF7 > 100 µM | K562 > 100 µM | NCI-H522 > 100 µM | EKVX > 100 µM | UACC-257 > 100 µM | SK-OV-3 > 100 µM | NCI-H23 > 100 µM | OVCAR-8 > 100 µM | ACHN > 100 µM | MDA-MB-231 > 100 µM | SNB-19 > 100 µM | RPMI-8226 > 100 µM | HCT-116 > 100 µM | MDA-MB-435 > 100 µM | IGROV-1 > 10 µM | OVCAR-3 > 100 µM | 786-0 > 100 µM | DU-145 > 100 µM | BT-549 > 100 µM | OVCAR-5 > 100 µM | U-251 > 100 µM | SF-295 > 100 µM | COLO 205 > 100 µM | M14 > 100 µM | HOP-62 > 100 µM | PC-3 > 100 µM | HCC 2998 > 100 µM | NCI/ADR-RES > 100 µM | UO-31 > 100 µM | NCI-H226 > 100 µM | LOX IMVI > 100 µM | SNB-75 > 100 µM | A549 > 100 µM | OVCAR-4 > 100 µM | SF-268 > 100 µM | SF-539 8.32 µM | SK-MEL-5 > 100 µM | CAKI-1 > 100 µM | KM12 > 100 µM | SR > 100 µM | NCI-H460 > 100 µM | RXF 393 > 100 µM | HL-60 > 100 µM | UACC-62 > 100 µM | SK-MEL-28 > 100 µM | SK-MEL-2 > 100 µM | A498 > 100 µM | SW-620 > 100 µM | CCRF-CEM > 100 µM | Hs-578T > 100 µM | SN12C > 100 µM

CN(C)c1ccc(C2=C([O-])c3cc(-[n+]4ccccc4)ccc3C2=O)cc1
inactive: HT-29 > 100 µM | MOLT-4 > 100 µM | HOP-92 > 100 µM | MDA-N > 100 µM | Malme-3M > 100 µM | MCF7 > 100 µM | K562 > 100 µM | NCI-H522 > 100 µM | EKVX > 100 µM | UACC-257 > 100 µM | NCI-H23 > 100 µM | OVCAR-8 > 100 µM | ACHN > 100 µM | MDA-MB-231 > 100 µM | SNB-19 > 100 µM | RPMI-8226 > 100 µM | HCT-116 > 100 µM | MDA-MB-435 > 100 µM | IGROV-1 > 100 µM | OVCAR-3 > 100 µM | 786-0 > 100 µM | DU-145 > 100 µM | BT-549 > 100 µM | OVCAR-5 > 100 µM | U-251 > 100 µM | SF-295 > 100 µM | COLO 205 > 100 µM | HOP-62 > 100 µM | PC-3 > 100 µM | HCC 2998 > 100 µM | NCI/ADR-RES > 100 µM | UO-31 > 100 µM | NCI-H226 > 100 µM | LOX IMVI > 100 µM | SNB-75 > 100 µM | A549 > 100 µM | OVCAR-4 > 100 µM | SF-268 > 100 µM | SF-539 > 100 µM | SK-MEL-5 > 100 µM | CAKI-1 > 100 µM | KM12 > 100 µM | TK-10 > 100 µM | SR > 100 µM | NCI-H460 > 100 µM | RXF 393 > 100 µM | HL-60 > 100 µM | SK-MEL-28 > 100 µM | A498 > 100 µM | SW-620 > 100 µM | CCRF-CEM > 100 µM | Hs-578T > 100 µM | SN12C > 100 µM
> 100 µM: HCT-15
